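Grown in 96-well plates, cells were treated for 48 hours with each compound at five concentrations. Insufficient inhibition: endpoint recorded as highest concentration tested. At the GI50, growth is halved. The concentration for full growth arrest is given as TGI.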
How the values were obtained:
Test in all cases: NCI-60 cell line screen, 48 h
[1] = system: A498 renal
[2] = system: CAKI-1 renal
[3] = system: COLO 205 colon
[4] = system: HCC-2998 colon
[5] = system: MDA-MB-231 breast
[6] = system: NCI-H226 lung
[7] = system: NCI/ADR-RES ovarian
[8] = system: OVCAR-3 ovarian
[9] = system: SNB-19 CNS
[10] = system: SW-620 colon

Compound: Nc1ccccc1SC(CC(=O)c1ccccc1)c1ccc([N+](=O)[O-])cc1 (centres undefined)
- GI50 [1]: 14.3 µM
- TGI [1]: 27.7 µM
- GI50 [2]: 15.2 µM
- TGI [2]: 28.8 µM
- GI50 [3]: 16.7 µM
- TGI [3]: 31.2 µM
- GI50 [4]: 15.8 µM
- TGI [4]: 29.6 µM
- GI50 [5]: 11.8 µM
- TGI [5]: 24.1 µM
- GI50 [6]: 18 µM
- TGI [6]: 36.3 µM
- GI50 [7]: 14.5 µM
- TGI [7]: 28.9 µM
- GI50 [8]: 11.4 µM
- TGI [8]: 23.7 µM
- GI50 [9]: 12.2 µM
- TGI [9]: 24.6 µM
- GI50 [10]: 2.88 µM
- TGI [10]: 10.9 µM

Compound: COc1ccc(CCN2CCCN3C2=Nc2ccccc2S3(=O)=O)cc1
- GI50 [1]: 0.195 µM
- TGI [1]: 3.2 µM
- GI50 [2]: 0.73 µM
- TGI [2]: > 100 µM
- GI50 [3]: 0.329 µM
- TGI [3]: 1.48 µM
- GI50 [4]: 1.45 µM
- TGI [4]: > 100 µM
- GI50 [5]: 1.68 µM
- TGI [5]: > 100 µM
- GI50 [6]: 8.25 µM
- TGI [6]: > 100 µM
- GI50 [7]: 0.3 µM
- TGI [7]: 6.8 µM
- GI50 [9]: 0.882 µM
- TGI [9]: > 100 µM
- GI50 [10]: 0.381 µM
- TGI [10]: > 100 µM

Compound: CC(C)CCSC1=CC(=O)c2ccccc2C1=O
- GI50 [1]: 19.8 µM
- TGI [1]: 63.9 µM
- GI50 [2]: 10.3 µM
- TGI [2]: 21.9 µM
- GI50 [3]: 10.9 µM
- TGI [3]: 22.9 µM
- GI50 [4]: 21.5 µM
- TGI [4]: 45.7 µM
- GI50 [5]: 1.36 µM
- TGI [5]: 3.5 µM
- GI50 [6]: 6.82 µM
- TGI [6]: 32.8 µM
- GI50 [7]: 8.75 µM
- TGI [7]: 40.1 µM
- GI50 [8]: 1.17 µM
- TGI [8]: 2.39 µM
- GI50 [9]: 30 µM
- TGI [9]: > 100 µM
- GI50 [10]: 2.59 µM
- TGI [10]: 8.91 µM

Compound: CNC(=O)c1c(NC(=O)c2ccc(C(F)(F)F)cc2)sc2c1CCC(=O)C2
- GI50 [1]: 2.33 µM
- TGI [1]: 7.07 µM
- GI50 [2]: 0.388 µM
- TGI [2]: 1.88 µM
- GI50 [3]: 0.603 µM
- TGI [3]: 3.1 µM
- GI50 [4]: 1.09 µM
- TGI [4]: 4.12 µM
- GI50 [5]: 0.529 µM
- TGI [5]: 2.51 µM
- GI50 [6]: 1.82 µM
- TGI [6]: 5.35 µM
- GI50 [7]: 0.662 µM
- TGI [7]: 3.74 µM
- GI50 [8]: 0.812 µM
- TGI [8]: 3.29 µM
- GI50 [9]: 0.735 µM
- TGI [9]: > 65.9 µM
- GI50 [10]: 0.235 µM
- TGI [10]: 1.64 µM

Compound: CCN(CC)CC.CCOc1ccc(NC(=O)N=C=[N-])cc1.[CH-]1CCCCC1.[CH-]1CCCCC1.[CH-]1CCCCC1.[Cl-].[Sn+4]
- GI50 [1]: 0.0423 µM
- TGI [1]: 0.0959 µM
- GI50 [2]: 0.0282 µM
- TGI [2]: 0.0969 µM
- GI50 [3]: 0.0184 µM
- TGI [3]: 0.0422 µM
- GI50 [4]: 0.0255 µM
- TGI [4]: 0.0669 µM
- GI50 [5]: 0.103 µM
- TGI [5]: 0.25 µM
- GI50 [6]: 0.0737 µM
- TGI [6]: 0.183 µM
- GI50 [7]: 0.0221 µM
- TGI [7]: 0.0559 µM
- GI50 [8]: 0.0171 µM
- TGI [8]: 0.038 µM
- GI50 [9]: 0.0586 µM
- TGI [9]: 0.122 µM
- GI50 [10]: 0.0169 µM
- TGI [10]: 0.0326 µM

Compound: CCNCCC1(CC)C(=O)NC(=O)NC1=O
- TGI [1]: > 100 µM
- TGI [2]: > 100 µM
- TGI [3]: > 100 µM
- GI50 [4]: > 100 µM
- TGI [4]: > 100 µM
- TGI [5]: > 100 µM
- TGI [6]: > 100 µM
- TGI [7]: > 100 µM
- TGI [8]: > 100 µM
- TGI [9]: > 100 µM
- TGI [10]: > 100 µM

Reference: PubChem BioAssay (NCI)
